Experimental data from ChEMBL document CHEMBL4364255, “3,4-Dideoxy-3,3,4,4-tetrafluoro- and 4-OH epimeric 3-deoxy-3,3-difluoro-α-GalCer analogues: Synthesis and biological evaluation on human iNKT cells stimulation” (Eur J Med Chem, 2019).
Active and inactive are the calls of the source. The calls are words filed in the database; no cut-off is given here.

Legend:
Type in all cases: cell-based
[1] = target: T1, Antigen-presenting glycoprotein CD1d (Homo sapiens) (UniProt P15813); test: Binding affinity to human CD1d expressed in human HeLa cells assessed as increase in IFNgamma production at 10 uM to 10^-4 uM incubated overnight prior to iNKT MAD11 cells addition to CD1d-compound mixture and measured after 6 hrs by ELISA
T1 sequence (whole entry): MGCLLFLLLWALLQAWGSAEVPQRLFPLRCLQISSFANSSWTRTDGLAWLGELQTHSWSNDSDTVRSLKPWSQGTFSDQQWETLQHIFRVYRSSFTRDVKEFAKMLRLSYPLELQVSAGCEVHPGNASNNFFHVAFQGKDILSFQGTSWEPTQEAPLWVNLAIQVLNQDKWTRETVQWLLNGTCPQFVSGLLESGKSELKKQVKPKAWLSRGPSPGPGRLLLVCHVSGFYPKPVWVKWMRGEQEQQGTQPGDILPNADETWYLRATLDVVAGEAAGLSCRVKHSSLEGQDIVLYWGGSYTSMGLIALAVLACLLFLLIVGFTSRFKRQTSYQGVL

[2] = test system: iNKT; test: Effect on human iNKT MAD11 cells stimulation assessed as increase in IL-13 production pretreated with HeLa cells for overnight prior to iNKT MAD11 cells addition and measured after 24 hrs by ELISA
[3] = target: T1, Antigen-presenting glycoprotein CD1d (Homo sapiens); test: Binding affinity to human CD1d expressed in human HeLa cells assessed as increase in IL-13 production at 10 uM to 10^-4 uM incubated overnight prior to iNKT MAD11 cells addition to CD1d-compound mixture and measured after 24 hrs by ELISA
[4] = test system: iNKT; test: Effect on human iNKT MAD11 cells stimulation assessed as increase in IFNgamma production pretreated with HeLa cells for overnight prior to iNKT MAD11 cells addition and measured after 6 hrs by ELISA

Activity [1]	Activity [3]	Structure (SMILES)	Activity [2]	Activity [4]
Active	Active	CCCCCCCCCCCCCCCCCCCCCCCCCC(=O)N[C@@H](CO[C@H]1O[C@H](CO)[C@H](O)[C@H](O)[C@H]1O)C(F)(F)[C@H](O)CCCCCCCCCCCCCC	Non-Toxic	Non-Toxic
Active	Active	CCCCCCCCCCCCCCCCCCCCCCCCCC(=O)N[C@@H](CO[C@H]1O[C@H](CO)[C@H](O)[C@H](O)[C@H]1O)[C@H](O)[C@H](O)CCCCCCCCCCCCCC [RGI-7000]	Non-Toxic	Non-Toxic
Active	Active	CCCCCCCCCCCCCCCCCCCCCCCCCC(=O)N[C@@H](CO[C@H]1O[C@H](CO)[C@H](O)[C@H](O)[C@H]1O)C(F)(F)C(F)(F)CCCCCCCCCCCCCC	Non-Toxic	Non-Toxic
Active	Active	CCCCCCCCCCCCCCCCCCCCCCCCCC(=O)N[C@@H](CO[C@H]1O[C@H](CO)[C@H](O)[C@H](O)[C@H]1O)C(F)(F)[C@@H](O)CCCCCCCCCCCCCC	Non-Toxic	Non-Toxic
